{"source": "paper PMC11477209", "about": "“Toxicological Evaluation of Kaempferol and Linearolactone as Treatments for Amoebic Liver Abscess Development in Mesocricetus auratus” (International Journal of Molecular Sciences, 2024)", "key": {"[1]": {"system": "E. histolytica trophozoites (virulent HM-1 strain)", "assay": "microbe, parasite or virus in culture", "details": "Entamoeba histolytica, 48 h, read-out: IC50 HM-1, 48 h, flow cytometry"}, "BEAS-2B cells": {"system": "BEAS-2B cells", "assay": "MTT cytotoxicity assay", "type": "cell-based, human", "details": "24 h"}, "[2]": {"details": "in vivo", "experimental": "After blood samples were obtained, the hamsters were sacrificed with a lethal dose of sodium pentobarbital, followed by a cervical fracture. They were mounted on a dissecting board for the necropsy. A complete mid-laparotomy was performed to remove the lungs, spleen, heart, liver, and kidneys. An excisional biopsy was performed to recover the ALA lesions for morphometric analysis. The organs and ALA lesions were rinsed with 1× PBS, weighed, and adherent tissue was removed. […] Later, the inclusion protocol was performed to obtain histological sections (3 μm thick) with a rotatory microtome (RM2125-RTS, Leica; Wetzlar, Germany). Tissue slices were stained with hematoxylin-eosin (Merck; Rahway, NJ, USA), mounted on coverslips with Entellan^TM-New (Merck; Rahway, NJ, USA), and observed with optical microscopy (Eclipse 80i, Nikon; Tokio, Japan)."}, "CHO-K1 cells": {"system": "CHO-K1 cells", "assay": "MTT cytotoxicity assay", "type": "cell-based, Chinese hamster", "details": "24 h, MTT"}, "[3]": {"details": "ALA hamsters"}, "[4]": {"system": "E. histolytica trophozoites (virulent HM-1 strain)", "details": "48 h"}, "[5]": {"system": "E. histolytica trophozoites", "details": "48 h; ref [12],[13]; read-out: IC50 E. histolytica trophozoites (antiproliferative activity); cited from earlier work"}, "[6]": {"details": "MTZ 0.16, KP 31.6, LL 15.6 μg/mL"}}}
{"smiles": "C[C@]12C[C@H](c3ccoc3)OC(=O)[C@H]1CCC13COC(=O)C1=CC=C[C@H]32", "note": "(stereo partly drawn) [LL, (4S,7R,9R,10S)-7-(furan-3-yl)-9-methyl-6,16-dioxatetracyclo[8.7.0.01,14.04,9]heptadeca-11,13-diene-5,15-dione]", "values": [{"measurement": "IC50", "setting": "[1]", "result": 7.8, "unit": "µg/mL"}, {"measurement": "biological activity symbol on IC50 BEAS-2B", "setting": "BEAS-2B cells", "result": "-"}, {"measurement": "IC50", "setting": "BEAS-2B cells; Homo sapiens, BEAS-2B", "result": 200, "unit": "µg/mL"}, {"measurement": "Heart largest diameter", "setting": "[2]", "result": "1.1 ± 0.07", "unit": "cm"}, {"measurement": "Heart weight", "setting": "[2]", "result": "0.38 ± 0.08", "unit": "g"}, {"measurement": "Kidneys largest diameter", "setting": "[2]", "result": "1.1 ± 0.08", "unit": "cm"}, {"measurement": "Kidneys weight", "setting": "[2]", "result": "0.49 ± 0.07", "unit": "g"}, {"measurement": "Liver largest diameter", "setting": "[2]", "result": "3.94 ± 0.16", "unit": "cm"}, {"measurement": "Liver weight", "setting": "[2]", "result": "5.5 ± 0.9", "unit": "g"}, {"measurement": "Lungs largest diameter", "setting": "[2]", "result": "2.4 ± 0.1", "unit": "cm"}, {"measurement": "Lungs weight", "setting": "[2]", "result": "0.74 ± 0.06", "unit": "g"}, {"measurement": "Spleen largest diameter", "setting": "[2]", "result": "3.4 ± 0.4", "unit": "cm"}, {"measurement": "Spleen weight", "setting": "[2]", "result": "0.26 ± 0.05", "unit": "g"}, {"measurement": "biological activity symbol on IC50 CHO-K1", "setting": "CHO-K1 cells", "result": "-"}, {"measurement": "IC50", "setting": "CHO-K1 cells; Cricetulus griseus, CHO-K1, read-out: IC50 CHO-K1", "result": 300, "unit": "µg/mL"}, {"measurement": "change in body weight compared with the control (disease-free) group", "setting": "[3]", "result": "−0.21", "unit": "%"}, {"measurement": "Hamster weight", "setting": "[3]; i.p. 4 days", "result": "93.4 ± 7.2", "unit": "g"}, {"measurement": "Survival rate", "setting": "[3]; i.p. 4 days", "result": 100, "unit": "%"}, {"measurement": "Toxicity signs", "setting": "[3]; i.p. 4 days", "result": "None"}, {"measurement": "biological activity symbol on IC50 HM-1", "setting": "[4]", "result": "+"}, {"measurement": "IC50 HM-1", "setting": "[4]; flow cytometry", "result": "< 7.8", "unit": "µg/mL"}, {"measurement": "apoptotic trophozoites", "setting": "[4]; [6]", "result": 4.3, "unit": "%"}, {"measurement": "necrotic trophozoites", "setting": "[4]; [6]", "result": 90.1, "unit": "%"}, {"measurement": "decrease of size and granularity of the cell population", "setting": "[4]; MTZ 0.16, KP 31.6, LL 15.6 μg/mL, vs Vh", "result": 66, "unit": "%"}, {"measurement": "IC50", "setting": "[5]", "result": 22.9, "unit": "µM"}]}
